Key:
MDA-MB-134VI cells = test: Cell growth-inhibitory effect of combined use (T/C), CellTiter-Glo 2.0; settings: for viability at 0.1 µM: Homo sapiens, MDA-MB-134-VI, 120 h, read-out: T/C (treated/control) cell viability
Description: The cell viability was measured using CellTiter-Glo 2.0 (Promega). […] The number of cells seeded was 500 cells/80 μL per well. […] After drug addition, the cells were further incubated at 37° C. and 5% CO2 for 120 hours. Experiments were carried out in triplicate (3 wells per treatment group). The cell viability was calculated by adding 100 μL of CellTiter-Glo 2.0 reagent per well, incubating at room temperature for 30 minutes, and then measuring the chemiluminescence of each well with a plate reader (EnSpire). The cell viability in the case of drug addition was calculated as a ratio with respect to the control group, which was set to 100%, according to the following formula, and the average value of the data of three wells was used for the analysis.
Cell viability (%)=(chemiluminescence in the case of drug addition)/(chemiluminescence of control group)×100

breast cancer = settings: phase II; subpopulation of FGF pathway-amplified breast cancer patients; cited from earlier work

Compound	viability at 0.1 µM (MDA-MB-134VI cells) [%]	T/C (treated/control) cell viability (MDA-MB-134VI cells; MDA-MB-134VI, drug alone at 1 μM, 120 hours) [%]	median value of the mean progression-free survival (PFS) (breast cancer) [months]
C=CC(=O)N1CC[C@H](n2nc(C#Cc3cc(OC)cc(OC)c3)c3c(N)ncnc32)C1 [compound 1, (S)-1-(3-(4-amino-3-((3,5-dimethoxyphenyl)ethynyl)-1H-pyrazolo[3,4-d]pyrimidin-1-yl)pyrrolidin-1-yl)prop-2-en-1-one]	35	–	–
4-hydroxytamoxifen	–	65	–
C[C@]12CC[C@@H]3c4ccc(O)cc4C[C@@H](CCCCCCCCC[S+]([O-])CCCC(F)(F)C(F)(F)F)[C@H]3[C@@H]1CC[C@@H]2O (stereo partly shown) [fulvestrant]	75	–	5.5
